Assay results published in ChEMBL document CHEMBL1201862, “PubChem BioAssay data set” (2004).
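Tested at 5 concentrations; 48 h exposure; 96-well plates; endpoints linearly interpolated, else capped at highest concentration. Abbreviation: GI50, concentration required for 50% inhibition of growth.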 Activity calls are given as the source filed them. Cut-off read from the data, not from the text of the source: active = GI50 up to about 1.1 µM and inactive = higher.

What was measured:
Assay in all cases: inhibition of tumour cell growth, NCI panel, 48 h
[1] = system: HT-29
[2] = system: NCI-H226
[3] = system: SK-MEL-2
[4] = system: OVCAR-3
[5] = system: ACHN
[6] = system: CAKI-1
[7] = system: M14
[8] = system: SK-OV-3
[9] = system: OVCAR-8
[10] = system: RXF 393
[11] = system: COLO 205
[12] = system: CCRF-CEM
[13] = system: EKVX
[14] = system: UACC-62
[15] = system: NCI-H522
[16] = system: Malme-3M

Measured: GI50

CN(C)CCNC(=O)c1cccc2[nH]c(-c3ccccc3)nc12
inactive: [1] 19.8 µM | [2] 16.4 µM | [3] 18.5 µM | [4] 21.6 µM | [5] 15.3 µM | [6] 24.7 µM | [7] 17.3 µM | [8] 17.3 µM | [9] > 10 µM | [10] 17.2 µM | [11] 11.6 µM | [12] 15.9 µM | [13] 23.9 µM | [14] 18.5 µM

CC1=C(c2cc(C(=O)Nc3nccs3)nc(NC#N)n2)Sc2ccccc2N1
inactive: [1] > 100 µM | [2] > 100 µM | [3] > 100 µM | [15] > 100 µM | [16] > 100 µM | [4] > 100 µM | [5] > 100 µM | [6] > 100 µM | [7] > 100 µM | [9] > 100 µM | [11] > 100 µM | [12] 79.1 µM | [13] > 100 µM | [14] > 100 µM

COC(=O)CC(CC(=O)C(=O)OC)C(=O)OC (stereo not given)
inactive: [1] > 100 µM | [2] > 100 µM | [3] > 100 µM | [16] > 100 µM | [4] > 100 µM | [5] > 100 µM | [6] > 100 µM | [7] > 100 µM | [8] > 100 µM | [9] > 100 µM | [10] > 100 µM | [11] > 100 µM | [12] > 100 µM | [13] > 100 µM | [14] > 100 µM

CC1OC(n2cc(I)c(=O)[nH]c2=O)C=CC1=O (stereo not given)
inactive: [1] 16.8 µM | [2] 17.6 µM | [3] 17.9 µM | [16] 14.9 µM | [4] 17.5 µM | [5] 17.7 µM | [6] 16 µM | [7] 16.9 µM | [8] 29.2 µM | [9] 17.1 µM | [11] 17 µM | [12] 2.43 µM | [13] 17.5 µM | [14] 17.2 µM

COc1ccc2c(c1)[n+]([O-])c(-c1ccccc1)c(N)[n+]2[O-]
inactive: [1] 52.7 µM | [2] > 100 µM | [3] 46 µM | [15] 17.1 µM | [16] 20.9 µM | [4] 39.8 µM | [5] 52.6 µM | [6] 37.2 µM | [7] 29.4 µM | [8] > 100 µM | [9] 37.2 µM | [11] 20.4 µM | [12] 53 µM | [13] 43.8 µM | [14] 30.3 µM

COC1OC(CBr)C(OC(=O)c2ccccc2)C(O)C1Br (stereo not given)
inactive: [1] > 100 µM | [2] > 100 µM | [15] > 100 µM | [16] > 100 µM | [4] > 100 µM | [6] > 100 µM | [7] > 100 µM | [9] > 100 µM | [10] > 100 µM | [11] > 100 µM | [12] > 100 µM | [14] > 100 µM

CN(C(=N)c1ccccc1)c1ccccc1
inactive: [1] > 100 µM | [2] > 100 µM | [3] > 100 µM | [4] > 100 µM | [7] > 100 µM | [8] > 100 µM | [9] > 100 µM | [11] > 100 µM | [12] > 100 µM | [13] > 100 µM | [14] > 100 µM

Cc1ccc(-c2c(N)[n+]([O-])c3ccccc3[n+]2[O-])cc1
inactive: [1] 12.3 µM | [2] 17.9 µM | [3] 8.51 µM | [15] 1.55 µM | [16] 3.47 µM | [4] 16 µM | [5] 15.4 µM | [6] 3.81 µM | [7] 12 µM | [8] 21.2 µM | [9] 23.4 µM | [11] 15.2 µM | [12] 47.4 µM | [13] 23.4 µM | [14] 7.18 µM

NC(=O)NNC/C(Cl)=C(\Cl)C(=O)O
inactive: [1] > 100 µM | [2] > 50 µM | [3] > 100 µM | [15] > 100 µM | [16] > 100 µM | [4] > 100 µM | [5] > 100 µM | [6] > 100 µM | [7] > 100 µM | [8] > 100 µM | [9] > 100 µM | [11] > 100 µM | [12] > 100 µM | [13] > 100 µM | [14] > 100 µM

CC1(c2ccccc2)CC(c2ccccc2)=NO1 (stereo not given)
inactive: [1] > 100 µM | [2] > 100 µM | [3] > 100 µM | [15] > 100 µM | [16] > 100 µM | [4] > 100 µM | [5] > 100 µM | [6] > 100 µM | [7] > 100 µM | [8] > 100 µM | [9] > 100 µM | [11] > 100 µM | [12] > 100 µM | [13] > 100 µM | [14] > 100 µM

CC(=O)c1c(O)ccc2c1CC(CC=O)O2 (stereo not given)
inactive: [1] 37.2 µM | [2] > 100 µM | [15] 60.5 µM | [16] > 100 µM | [4] 48.5 µM | [5] > 100 µM | [6] > 100 µM | [7] 47.5 µM | [8] > 100 µM | [9] 27.6 µM | [10] > 100 µM | [11] > 100 µM | [12] 74.8 µM | [14] 28.8 µM

C/C(=N\NC(=O)c1ccccc1O)c1c(O)cc(C)oc1=O
inactive: [1] > 100 µM | [2] 34.3 µM | [3] > 100 µM | [15] 32.7 µM | [16] 99.5 µM | [4] 41.2 µM | [5] 45 µM | [7] > 100 µM | [8] 17.4 µM | [9] 68.2 µM | [10] 40.6 µM | [11] > 100 µM | [12] > 10 µM | [13] 29.9 µM | [14] 25.6 µM

Cc1cc(=O)n2c3c(c4c(cc13)c(CO)cc(=O)n4C)OC2
inactive: [1] 19.5 µM | [2] 5.22 µM | [3] 7.46 µM | [15] 4.94 µM | [16] 8.65 µM | [4] 11.8 µM | [5] 9.57 µM | [6] 30.7 µM | [7] 20.6 µM | [8] 20 µM | [9] 6.67 µM | [11] 16.5 µM | [12] 9.46 µM | [13] 64.4 µM | [14] 12.5 µM

Cn1c(=O)c2c3oc(=O)cc(O)c3c(=O)n3c4ccccc4n(c1=O)c23
inactive: [1] 39.7 µM | [3] 23.4 µM | [16] 33.1 µM | [4] 24.6 µM | [5] 38 µM | [6] 32.3 µM | [7] 43.3 µM | [8] > 100 µM | [9] 40.9 µM | [10] 38.8 µM | [11] 27.9 µM | [12] 29.2 µM | [13] 57.3 µM | [14] 35 µM

O=NN1CCN=C1c1ccc([N+](=O)[O-])cc1
inactive: [1] > 100 µM | [2] > 100 µM | [15] > 100 µM | [16] > 100 µM | [4] > 100 µM | [5] > 100 µM | [6] > 100 µM | [7] > 100 µM | [8] > 100 µM | [9] > 100 µM | [10] > 100 µM | [11] > 100 µM | [14] > 100 µM

O=C(O)CCSC(=O)Nc1ccccc1Cl
inactive: [1] > 100 µM | [2] > 100 µM | [16] > 100 µM | [4] > 100 µM | [5] > 100 µM | [6] > 100 µM | [7] > 100 µM | [8] > 100 µM | [9] > 100 µM | [10] > 100 µM | [11] > 100 µM | [12] > 100 µM | [13] > 100 µM | [14] > 100 µM

COC(=O)C1=CC2C(=O)OC1C1C(=O)NC(=O)C21 (stereo not given)
inactive: [1] > 100 µM | [15] > 100 µM | [16] > 100 µM | [4] > 100 µM | [5] > 100 µM | [6] > 100 µM | [7] > 100 µM | [8] > 100 µM | [9] > 100 µM | [11] > 100 µM | [12] > 100 µM | [14] > 100 µM

CCCCCCCCCCCCNC(=S)OCCCC
inactive: [1] 72.3 µM | [3] 17.2 µM | [15] > 100 µM | [16] > 100 µM | [5] > 100 µM | [6] > 100 µM | [7] > 100 µM | [8] > 100 µM | [9] > 100 µM | [10] > 100 µM | [12] 29.4 µM | [13] > 100 µM | [14] > 100 µM

O=C(NNC(=O)c1cc(/C=C/c2cccc([N+](=O)[O-])c2)nc(S)n1)Nc1ccc(Cl)cc1
inactive: [1] 41.8 µM | [2] > 100 µM | [3] > 100 µM | [15] 22.7 µM | [16] > 100 µM | [4] 62.8 µM | [5] > 100 µM | [7] 93.8 µM | [8] > 100 µM | [9] 68.4 µM | [10] 34.5 µM | [11] 18.4 µM | [12] 20.6 µM | [13] > 100 µM | [14] 50.6 µM

N#C/C(=C\c1ccc(O)c(O)c1)C(N)=S [TYRPHOSTIN 47]
inactive: [1] 61.8 µM | [2] > 100 µM | [3] > 100 µM | [15] 16.2 µM | [16] > 100 µM | [4] 38.7 µM | [5] > 100 µM | [6] > 100 µM | [7] > 100 µM | [8] > 100 µM | [9] > 100 µM | [11] 56 µM | [12] 9.55 µM | [13] > 100 µM | [14] 81.5 µM
